We go through two compounds from ChEMBL document CHEMBL1149616, “Antiproliferative, low-calcemic, fluorinated sulfone analogs of 1alpha,25-dihydroxyvitamin D3: chemical synthesis and biological evaluation” (Bioorg Med Chem, 2007).

Activity calls are given as the source filed them. No cut-off for these calls is given here.

For assay [1], the system named is Keratinocyte. Put plainly: Antiproliferative activity against mouse keratinocytes at 3 to 7 nM. The format is functional, cell-based.
Assay [2] relates to Keratinocyte. The assay can be described thus: Antiproliferative activity against mouse keratinocytes at 7 nM. In kind it is functional, cell-based.

For the compound `C=C1/C(=C\C=C2/CCC[C@]3(C)[C@@H]([C@@H](C)OCCCS(=O)(=O)C(F)(F)F)CC[C@@H]23)C[C@@H](O)C[C@@H]1O`, the outcome in the assay on Keratinocyte [1] was Active. With `C=C1/C(=C\C=C2/CCC[C@]3(C)C([C@H](C)CCCS(=O)(=O)C(F)(F)F)=CC[C@@H]23)C[C@@H](O)C[C@@H]1O`, the result in the assay with Keratinocyte [2] was Active.
